The record followed here is PubChem BioAssay (NCI).

Among the test systems are HS 578T breast; K-562 leukemia; M14 melanoma; MALME-3M melanoma; MDA-MB-231 breast; MOLT-4 leukemia; SR leukemia; U251 CNS; HOP-92 NSCLC; RPMI-8226 leukemia.
Common to all, as to experiment: DTP human tumour cell line panel, 48 h

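A five-concentration, 48-hour dose response in 96-well plates underlies each endpoint, interpolated linearly between surrounding concentrations. The concentration for 50% growth inhibition is given as GI50. TGI denotes the concentration required for complete inhibition of growth.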

Regarding `CN(C)CCNC(=O)Cn1cc([N+](=O)[O-])c(=O)c2ccccc21`, the TGI in the test on HS 578T breast, in the test with K-562 leukemia, with M14 melanoma, in the test on MALME-3M melanoma, in the test on MDA-MB-231 breast and in the test with MOLT-4 leukemia was > 100 µM each time. Also, the TGI with SR leukemia and in the test on U251 CNS was > 100 µM each time.

For `CC(=O)c1c(C)n(C)c2c1nnc1ccccc12`, the total growth inhibition concentration (TGI) with HOP-92 NSCLC, in the test with HS 578T breast, in the test on M14 melanoma, in the test on MALME-3M melanoma, in the test with MDA-MB-231 breast and in the test on RPMI-8226 leukemia was > 100 µM throughout. Also, the TGI with U251 CNS was > 100 µM.

Turning to `OCC1OC(OCC(O)C(O)C(O)C(/C=N/Nc2ccccc2)=N/Nc2ccccc2)C(O)C(O)C1O` (stereo not drawn), the TGI in the test on HOP-92 NSCLC, in the test with HS 578T breast, in the test on M14 melanoma, in the test with MALME-3M melanoma, in the test on MDA-MB-231 breast and in the test with MOLT-4 leukemia was > 100 µM throughout. Besides, the concentration for total growth inhibition (TGI) in the test on RPMI-8226 leukemia, in the test with SR leukemia and in the test with U251 CNS was > 100 µM throughout.

On to `CCOC(=O)c1c2c(n(Cc3ccccc3)c1C)-c1ccccc1C(=O)C2=O`, for which the GI50 with HOP-92 NSCLC is 6.54 µM; with HS 578T breast, 2.93 µM; in the test with K-562 leukemia it was 17.1 µM; in the test with M14 melanoma, 11.9 µM; in the test with MALME-3M melanoma it was 13.7 µM; in the test on MDA-MB-231 breast, 13.1 µM. Also, the values for the GI50 in the test on RPMI-8226 leukemia, in the test on SR leukemia and in the test with U251 CNS were 13.2 µM, 3.39 µM and 8.75 µM, respectively. For the same compound, the TGI was 21.6 µM in the test on HOP-92 NSCLC; 12.4 µM in the test on HS 578T breast; > 100 µM in the test on K-562 leukemia; 24.5 µM with M14 melanoma; 29 µM in the test on MALME-3M melanoma; 27.9 µM in the test with MDA-MB-231 breast. Further, the values for the TGI in the test on RPMI-8226 leukemia, with SR leukemia and in the test on U251 CNS were 62.2 µM, 19 µM and 20.8 µM, respectively.

Take `CN=C(NC#N)NCCSCc1nc[nH]c1C`: the concentration for total growth inhibition (TGI) in the test with HOP-92 NSCLC, in the test with HS 578T breast, in the test with K-562 leukemia, in the test with M14 melanoma, with MALME-3M melanoma and with MDA-MB-231 breast was > 100 µM throughout. Moreover, the TGI in the test on MOLT-4 leukemia, in the test with SR leukemia and in the test on U251 CNS was > 100 µM each time.

In the case of `Cn1nnnc1N/N=C/c1ccccc1`, the total growth inhibition concentration (TGI) in the test with HOP-92 NSCLC, in the test on HS 578T breast, in the test on K-562 leukemia, in the test on M14 melanoma, with MDA-MB-231 breast and in the test on MOLT-4 leukemia was > 10 µM in each case. The TGI with RPMI-8226 leukemia, in the test with SR leukemia and in the test with U251 CNS was > 10 µM in each case.

Regarding `O=C(Nc1ccc(CN2CCOCC2)cc1)c1[nH]ncc1Nc1ncnc2sccc12`, the GI50 in the test with HOP-92 NSCLC is 5.52 µM; with HS 578T breast it was 0.14 µM; with K-562 leukemia, 0.402 µM; with M14 melanoma it was 0.56 µM; with MALME-3M melanoma, 1.83 µM; in the test with MDA-MB-231 breast, 0.854 µM. The GI50 in the test with RPMI-8226 leukemia was 0.517 µM; with SR leukemia it was 0.261 µM; in the test on U251 CNS, 0.281 µM. The TGI is > 100 µM in the test with HOP-92 NSCLC; 4.81 µM in the test with HS 578T breast; > 100 µM with K-562 leukemia; 13 µM with M14 melanoma; 8.61 µM with MALME-3M melanoma; > 100 µM in the test on MDA-MB-231 breast. In addition, the TGI amounted to 4.33 µM in the test on RPMI-8226 leukemia, 0.989 µM in the test with SR leukemia and 13.2 µM in the test with U251 CNS.

For the compound `C=CC(C=O)C1(O)CCOC(=O)/C1=C\N` (stereo not drawn), the GI50 in the test on HS 578T breast was 7.57 µM; with K-562 leukemia, > 100 µM; in the test with M14 melanoma, > 100 µM; in the test with MALME-3M melanoma it was > 100 µM; in the test with MDA-MB-231 breast it was > 100 µM; in the test on MOLT-4 leukemia it was > 100 µM. The GI50 is > 100 µM in the test with RPMI-8226 leukemia, 30.7 µM in the test with SR leukemia and > 100 µM in the test on U251 CNS. Also, the TGI with HS 578T breast, in the test with K-562 leukemia, with M14 melanoma, in the test with MALME-3M melanoma, with MDA-MB-231 breast and in the test with MOLT-4 leukemia was > 100 µM throughout. Further, the TGI in the test with RPMI-8226 leukemia, in the test on SR leukemia and in the test with U251 CNS was > 100 µM in each case.

Consider `Cc1cc(=O)[nH]o1`, for which the total growth inhibition concentration (TGI) with HOP-92 NSCLC, with HS 578T breast, in the test with K-562 leukemia, with M14 melanoma, with MDA-MB-231 breast and in the test with RPMI-8226 leukemia was > 100 µM each time. In addition, the total growth inhibition concentration (TGI) in the test on U251 CNS is > 100 µM.

In the case of `CCN1C(NN)=NS(=O)(=O)c2ccccc21`, the total growth inhibition concentration (TGI) in the test on HOP-92 NSCLC, in the test on HS 578T breast, in the test on K-562 leukemia, with M14 melanoma, in the test with MDA-MB-231 breast and with MOLT-4 leukemia was > 100 µM in each case. In addition, the TGI in the test with SR leukemia and with U251 CNS was > 100 µM throughout.

`CO/N=C(\C)c1cccc(Nc2cc(-c3ccccc3)nc3c(O)cccc23)c1`: the GI50 in the test on HOP-92 NSCLC is 5.28 µM; with HS 578T breast it was 5.31 µM; in the test on K-562 leukemia, 0.656 µM; with M14 melanoma, 3.13 µM; in the test with MALME-3M melanoma, 12.5 µM; in the test with MDA-MB-231 breast, 2.74 µM. Moreover, the GI50 was 2.91 µM in the test on RPMI-8226 leukemia, 3.83 µM with SR leukemia and 4.38 µM in the test with U251 CNS. The TGI was 28.9 µM in the test on HOP-92 NSCLC; 38.8 µM in the test with HS 578T breast; > 100 µM in the test with K-562 leukemia; 18.2 µM in the test on M14 melanoma; 35.4 µM with MALME-3M melanoma; 9.4 µM in the test with MDA-MB-231 breast. Further, the TGI in the test with RPMI-8226 leukemia worked out at 8.59 µM; in the test with SR leukemia, 29.8 µM; in the test on U251 CNS, 16.7 µM.

Consider `C/C1=C/C2=CC(C)C[C@@H]2C(=O)[C@]2(C)C(=O)CC(C)(C)[C@H]2CC1=O` (stereo partly drawn), for which the TGI in the test on HOP-92 NSCLC, in the test on HS 578T breast, in the test with K-562 leukemia, with M14 melanoma, with MALME-3M melanoma and with MDA-MB-231 breast was > 50 µM each time. Besides, the concentration for total growth inhibition (TGI) in the test with MOLT-4 leukemia, with RPMI-8226 leukemia and with U251 CNS was > 50 µM in each case.

In general, TGI refers to the concentration giving total growth inhibition. Read a low TGI as more potent growth arrest. As usually defined, the GI50 is the concentration at which growth is held to half of that of the control.
